The text below walks through data of patent US11560339B2, “Micronutrient foliar solutions” (KOCH AGRONOMIC SERVICES, LLC, priority 2019, dated 2023).

Data set [1] relates to soybean plants. Put plainly: Fe furrow application trial, biomass measurements. In kind it is in vivo. The following applies: in furrow at transplanting, Fe rate 0.616 mg/pot, harvested at V3-stage. The method, then:
(§1) One week after application, root and shoot masses were determined by drying the above- and below-ground biomass for 12 hours at […], then weighing each plant to the third decimal in grams.
(§2) Alkaline soil having a pH of 7.9 was made by mixing air-dried Michigan topsoil (sieved) and fine sand (50:50, v/v). Next, 0.5% w/w calcium hydroxide was added to the soil-sand mixture and mixed well. Water was then added (15% v/v), and the pots were kept in that condition for a week to allow time for alkalinity fully develop. The pH was checked, and the soil was then added to 1-liter pots. There were thirty pots total, providing five replicates for each of the six treatments described below.
(§3) Soybean seeds (FS HISOY® Soybeans) were planted in trays filled with sieved topsoil. A base fertilizer comprising water solution made with urea (N), and monoammonium phosphate (P), and potassium sulfate (K) was applied to each tray before planting. The application rate was of 50-50-50 ppm NPK. Seedlings were irrigated with DI water. The trays were kept in a plant growth chamber so that each seedling received the same environmental exposure during growth.
(§4) Sixteen days after the seeds were planted as described in Part 2 of this Example, the seedlings were transplanted to the pots prepared in Part 1 of this Example. A fertilizer solution was prepared by mixing 16.67 g of Nova PeKacid® 0-60-20 (a phosphorus and potassium fertilizer, available from ICL Specialty Fertilizers), 13.33 g of SOP fertilizer, and 11.2 L of DI water. At the time of transplant, 56.5 mL of this fertilizer solution were added to each pot, and this same fertilizer solution application was repeated weekly until harvest.
(§5) A micronutrient fertilizer solution was prepared by mixing the compounds of Table 19 in 1 L of DI water. At the time of transplanting, 10 mL of this micronutrient fertilizer solution was added to each pot. This application was not repeated during the growth cycle.
(§6) Using a pipette, an iron test solution (comparative or Option 11 solution from Example 9—see Table 20) was applied about 1 cm below the soil surface, near each plant except for the negative control. This was the only iron test solution application.
(§7) All plants received about 100 mL of DI water every other day.
(§8) Shoot and root biomasses were also determined, following the procedure described in Example 7.

Data set [2] deals with soybean plants. Kind of data set: Fe furrow application trial, SPAD measurements. It is filed as in vivo. The settings on record: in furrow at transplanting, Fe rate 0.616 mg/pot, harvested at V3-stage. The protocol:
(§9) The plants were analyzed for leaf chlorophyll concentrations using a Soil Plant Analysis Development (“SPAD”) chlorophyll meter (SPAD 502 Plus Chlorophyll Meter, from Spectrum Technologies, Inc.), which enables an in situ, nondestructive technique. That is, not sample processing was required, and the tests were carried out on live plants. Readings were taken immediately before the first foliar treatment and again at 72 hours after the second foliar treatment, and the % SPAD increase of each sample was determined.
as §2, §3, §4, §5, §6, §7
Thirty-six days after transplantation, the plants were harvested. SPAD measurements were taken as described Example 9. […] A total of nine readings were taken per trifoliate (3 per leaf).

Data set [3] relates to soybean plants. Put plainly: Fe foliar application trial, biomass measurements. It is filed as in vivo. The following applies: foliar at V3 stage, Fe rate 0.616 mg/pot (Table 20), harvested after 1 week. The protocol:
as §1, §8
(§10) Example 11 was exactly repeated except that instead of treating the soil with an iron solution by pipetting the solution at the time of transplantation, the plants were treated foliarly at V3 stage of growth and harvested 1 week after treatment. The SPAD, biomass, and iron uptake results can be found in Tables 24-26, respectively, while the Fe(III) reductase gene expression results can be found in FIG. 14.

In data set [4] the test system is soybean plants. Kind of data set: Fe foliar application trial, SPAD measurements. The following applies: foliar at V3 stage, Fe rate 0.616 mg/pot (Table 20), harvested after 1 week. It is filed as in vivo. The method, then:
as §9
Thirty-six days after transplantation, the plants were harvested. SPAD measurements were taken as described Example 9. Fully grown youngest trifoliate and second youngest trifoliate were selected for these SPAD measurements. A total of nine readings were taken per trifoliate (3 per leaf).
as §10

In data set [5] the test system is soybean plants. Kind of data set: Fe furrow application trial, iron uptake by ICP. In kind it is in vivo. The settings on record: in furrow at transplanting, Fe rate 0.616 mg/pot, harvested at V3-stage. The protocol: (§11) Iron concentrations for the various plants were also determined and compared at the time of harvest, which was at least 3 days after the last treatment application. Again, each treatment had five replicates. All samples were washed in acetic acid and rinsed before being prepared for analysis by Inductively Coupled Plasma (“ICP”) Spectroscopy. Dried samples were combusted at 450° C. and extracted with concentrated hydrochloric acid, followed by analysis using ICP.
as §2, §3, §4, §5, §6, §7
(§12) Iron uptake was determined using ICP as described in Example 9.

The subject of data set [6] is soybean plants. Put plainly: Fe foliar application trial, iron uptake by ICP. It is filed as in vivo. The following applies: foliar at V3 stage, Fe rate 0.616 mg/pot (Table 20), harvested after 1 week. The protocol:
as §11, §12, §10

For data set [7] the following is noted: 75% by weight solution mixed with 25% by weight of a 50% phosphonate solution, room temperature, one week; FIG. 3. The method, then: The source of iron was iron(II) sulfate heptahydrate, the base utilized was Mg(OH)2, and the citric acid:malic acid ratio was 50:50. The ratio of metal:base:total acid was 4:4:3.
A comparative solution was prepared by mixing 75% of an iron sulfate solution with 25% of the same phosphonate, also under ambient conditions. The solutions were permitted to sit for one week to look for any unwanted precipitation (i.e., iron complexed with the phosphonate).

With `O=C([O-])CN(CCN(CC(=O)[O-])CC(=O)[O-])CC(=O)[O-].[Fe+3]` [FeEDTA, iron chelated with EDTA], in data set [1], the “Root average dry biomass” value was 0.650 g and the “Shoot average dry biomass” value was determined as 2.276 g. Besides, in data set [2], the “Average SPAD value, second youngest trifoliate (old)” value (shortened to “Average SPAD value … (old)”) was 37.94 and the “Average SPAD value, youngest trifoliate (young)” value (“Average SPAD value … (young)” for short) stood at 39.12. In data set [3], the “Root average weight/plant (dry biomass)” value was determined as 0.661 g and the “Shoot average weight/plant (dry biomass)” value was 2.514 g. In data set [4], the “Average SPAD value … (old)” value is reported as 32.74 and the “Average SPAD value … (young)” value amounted to 32.06. Moreover, in data set [5], the “Average Fe uptake, root” value was 183.64 μg/plant and the “Average Fe uptake, shoot” value came out at 188.92 μg/plant. For the same molecule, in data set [6], the “Average Fe uptake, root” value is 246.69 μg/plant and the “Average Fe uptake, shoot” value is recorded as 348.28 μg/plant.

Turning to `O=S(=O)([O-])[O-].[Fe+2]` [FeSO4, iron sulfate], in data set [1], the “Root average dry biomass” value is given as 0.540 g and the “Shoot average dry biomass” value was 1.992 g. In data set [2], the “Average SPAD value … (old)” value is given as 30.74 and the “Average SPAD value … (young)” value worked out at 32.98. Further, in data set [3], the “Root average weight/plant (dry biomass)” value turned out to be 0.601 g and the “Shoot average weight/plant (dry biomass)” value amounted to 2.199 g. In data set [4], the “Average SPAD value … (old)” value was determined as 29.84 and the “Average SPAD value … (young)” value was determined as 33.64. Further, in data set [5], the “Average Fe uptake, root” value was found to be 172.17 μg/plant and the “Average Fe uptake, shoot” value is given as 116.20 μg/plant. For the same molecule, in data set [6], the “Average Fe uptake, root” value amounted to 273.02 μg/plant and the “Average Fe uptake, shoot” value is recorded as 217.88 μg/plant. The “extent of coordination complexing of iron (unwanted precipitation with phosphonate)” value in data set [7] was “which was not the case”.
